# From patent US20060018940A1, “Stabilized antimicrobial composition” (E. I. DU PONT DE NEMOURS AND COMPANY, priority 2004, published 2006)
# Several values for one entry are separate records, joined by “and”; a condition that tells them apart may be missing. Equal entries are not always repeated. Entries after “also recorded” stand apart in the source; their conditions may differ. Where two headings read alike, the source gives them in different places.
# Legend:
# Type in all cases: cell-based
# [1] = tested on: Salmonella choleraesuis ATCC 10708
# [2] = tested on: Staphylococcus aureus ATCC 6538; assay: Bacterial efficacy, suspension test (modified AOAC 965.13), plate count on TSA
# [3] = tested on: Aspergillus fumigatus ATCC 1098; assay: Fungicidal activity (modified AOAC Method 955.17), surviving spores; conditions: for reduction of the fungal bioburden (words): within 15 minutes of treatment, amounts equivalent to those in the tablet solution
# Protocol: This assay had several modifications from the published AOAC Fungicidal Activity of Disinfectants Protocol, Method 955.17. Aspergillus fumigatus ATCC 1098 was grown on Malt Extract Agar (available from Becton Dickinson, Billerica, Mass.) plates, and spores were harvested. Spores were stored in filter-sterilized Millipore water at −20° C. The spore preparation used for this experiment is detailed below. A freezer stock of A. fumigatus was defrosted and diluted to obtain an inoculum suspension for this experiment. The inoculum preparation was estimated to be approximately 5×10^6 conidia/mL. The following test solutions were prepared using filter sterilized Millipore water in steam-sterilized 4L bottles:
# Water Control: (filter-sterilized water only), pH 6.28.
# OXONE Control: 3.78 grams OXONE in 1 gallon (3.8L) sterile water, buffered to pH 4.43 using 0.98 g sodium bicarbonate and +5.25 g 10% H2SO4).
# Chlorite Control: 0.26 grams of sodium chlorite in 1 gallon sterile water buffered to pH 4.55 (1.8 g 10% H2SO4).
# Buffer Control: sodium bicarbonate, pH adjusted to 4.4.
# Chlorine Dioxide: anthium dioxide (stabilized sodium chlorite available from IDI, North Kingston, R.I.) was acidified with HCl.
# CLOROX control: 4.17% CLOROX bleach available from Clorox Company, Oakland, Calif. (v/v) in Millipore water by mixing 4.17 mL of Clorox bleach and water up to 100 mL total volume.
# Tablet test Solution (Example 21: 2 tablets of Example 6 were dissolved in one gallon (3.8 L) of deionized water. The total tablet weight was 5.13 grams. The pH of the resulting solution was 5.2.
# Reaction tubes: 5 mL of each test solution was aliquoted into 25×150 mm test culture tubes, capped and labeled according to Table 10. 9 mL of D/E (Dey/Engley) Neutralizing Broth (available from Becton Dickinson, Billerica, Mass.) was added to each of 28 test tubes and the tubes were capped. Butterfield buffer blanks were arranged for dilution of neutralized samples, and Malt Extract Agar plates were numbered for spore enumerations of the diluted, neutralized samples. With a graduated pipette, 0.5 mL of spore inoculum (approx. 10^6 condia/mL) was added to the first tube of test solution and gently shaken. After 5 and 15 minute exposures to the respective test solutions, samples were gently shaken and 1 mL samples were removed from each reaction mixture (spore-test solution) using an Eppendorf pipette and placed in 9 mL D/E (Dey/Engley) Neutralizing Broth. The inoculum was further diluted to approximately 10^4 condia/mL. Two more reaction tubes (water and OXONE-chlorite) and four Dey/Engley neutralization tubes were prepared to evaluate the efficacy of the tablet solution versus a final inoculum density of 10^3 condia/mL in the reaction tube. Samples were reacted for 15 minutes only. Dilutions of neutralized samples were prepared. Two 100 μL aliquots of all samples in D/E (Dey/Engley) Neutralizing Broth were plated on Malt Extract Agar and incubated at 25 °C until the appearance of colonies. Plates were counted after colonies appeared, roughly 4 days after incubation. Several dilutions of the inoculum spore suspensions were also plated on Malt Extract Agar to obtain an accurate count of viable spores used as inoculum. The samples were incubated at 25° C. and counted after the appearance of colonies, after about 4 days of incubation.
# Buffer control data was taken after 15 minutes. CLOROX control data was taken after 5 minutes of treatment.
# [4] = tested on: Pseudomonas aeruginosa ATCC 15442; assay: Bacterial efficacy, suspension test (modified AOAC 965.13), plate count on TSA
# [5] = 30 sec exposure, 1,008 ppm Oxone, 55.5 ppm Chlorite, 23.2 ppm ClO2
# [6] = 30 sec exposure, 1,008 ppm Oxone, 55.5 ppm Chlorite, 23.2 ppm ClO2, low level of detection 1.0E+01
# [7] = 10 min exposure, 1,008 ppm Oxone, 55.5 ppm Chlorite, 23.2 ppm ClO2
# [8] = 10 min exposure, 1,008 ppm Oxone, 55.5 ppm Chlorite, 23.2 ppm ClO2, low level of detection 1.0E+01
# [9] = 30 sec exposure, Example 20 = 1,008 ppm Oxone + 55.5 ppm Chlorite, controls 1,008 ppm Oxone, 55.5 ppm Chlorite, 23.2 ppm ClO2, low level of detection 1.0E+01
# [10] = 5 min, 1 × 10^6 conidia/mL inoculum in reaction mix, 2 replicates average, 2 Tabs 3.8 L, OXONE 3.78 g/gallon, chlorite 0.26 g/gallon, ClO2 ~23 ppm, 4.17% CLOROX
# [11] = 15 min, 1 × 10^6 conidia/mL inoculum in reaction mix, 2 replicates average, 2 Tabs 3.8 L, OXONE 3.78 g/gallon, chlorite 0.26 g/gallon, ClO2 ~23 ppm
compound,measurement,setting,value
"[O][Cl+][O-] [ClO2, chlorine dioxide]",CFU/mL,[1],1.00E+01 CFU/mL
same,Δt (log difference test and control densities),[1],5.1 log and 5.3 log
same,CFU/mL,[2],1.00E+01 CFU/mL
same,Δt (log difference test and control densities),[2],5.1 log and 5.2 log
same,Surviving bioburden counts (germinating spores - conidia/mL),[3],0.00E+00 conidia/mL
same,log A. fumigatus spores killed,[3],5 log
same,CFU/mL,[4],1.00E+01 CFU/mL
same,Δt (log difference test and control densities),[4],5 log and 5.0 log and 5.1 log
sodium chlorite,Δt (log difference test and control densities),[1]; [5],−0.3 log
same,CFU/mL,[1]; [6],3.09E+06 CFU/mL
same,Δt (log difference test and control densities),[1]; [7],0.2 log
same,CFU/mL,[1]; [8],1.27E+06 CFU/mL
same,Δt (log difference test and control densities),[2]; [5],0.0 log
same,CFU/mL,[2]; [9],1.23E+06 CFU/mL
same,Δt (log difference test and control densities),[2]; [7],0.1 log
same,CFU/mL,[2]; [8],1.20E+06 CFU/mL
same,Surviving bioburden counts (germinating spores - conidia/mL),[3]; [10],4.25E+05 conidia/mL
same,Surviving bioburden counts (germinating spores - conidia/mL),[3]; [11],6.25E+05 conidia/mL
same,reduction of the fungal bioburden (words),[3]; listed as chlorite,not able to reduce the bioburden
same,reduction of the fungal bioburden (words),[3]; listed as sodium chlorite,ineffective in reducing the fungal bioburden
same,Δt (log difference test and control densities),[4]; [5],−0.1 log
same,CFU/mL,[4]; [6],1.17E+06 CFU/mL
same,Δt (log difference test and control densities),[4]; [7],0.0 log
same,CFU/mL,[4]; [8],1.21E+06 CFU/mL
"triple salt of potassium monopersulfate, potassium hydrogen sulfate and potassium sulfate [Oxone]",Δt (log difference test and control densities),[2]; [5],0.0 log
same,CFU/mL,[2]; [9],1.52E+06 CFU/mL
same,Δt (log difference test and control densities),[2]; [7],0.4 log
same,CFU/mL,[2]; [8],6.15E+05 CFU/mL
same,Surviving bioburden counts (germinating spores - conidia/mL),[3]; [10],3.45E+05 conidia/mL
same,Surviving bioburden counts (germinating spores - conidia/mL),[3]; [11],5.70E+05 conidia/mL
same,reduction of the fungal bioburden (words),[3],not able to reduce the bioburden; also recorded: ineffective in reducing the fungal bioburden
same,Δt (log difference test and control densities),[4]; [5],0.0 log
same,CFU/mL,[4]; [6],9.50E+05 CFU/mL
same,Δt (log difference test and control densities),[4]; [7],5.1 log
same,CFU/mL,[4]; [8],1.00E+01 CFU/mL
